Patent publication US20020026053A1, “Novel 3-(substituted) -2- indolinones compounds and use thereof as inhibitors of protein kinase activity” (priority 1997, published 2002)
“And” between values parts separate entries of the source, which are not always exact repeats. Equal entries are not always repeated.

Tests used:
[1] = system: FLK-1 receptor; test: FLK-1 Assay (cellular/catalytic ELISA, VEGF-stimulated phosphotyrosine); type: cell-based; set-up: concentration or dose not given beside the values; conditions: protocol P.110
Procedure: (§1) The cellular/catalytic assays described herein are performed in an ELISA format. The general procedure is as follows: a compound is introduced to cells expressing the test kinase, either naturally or recombinantly, for a selected period of time after which, if the test kinase is a receptor, a ligand known to activate the receptor is added. The cells are lysed and the lysate is transferred to the wells of an ELISA plate previously coated with a specific antibody recognizing the substrate of the enzymatic phosphorylation reaction. Non-substrate components of the cell lysate are washed away and the amount of phosphorylation on the substrate is detected with an antibody specifically recognizing phosphotyrosine compared with control cells that were not contacted with a test compound.
An ELISA assay is conducted to measure the kinase activity of the FLK-1 receptor and more specifically, the inhibition or activation of TK activity on the FLK-1 receptor. Specifically, the following assay can be conducted to measure kinase activity of the FLK-1 receptor in cells genetically engineered to express Flk-1.
a. Corning 96-well ELISA plates (Corning Catalog No. 25805-96);
b. Cappel goat anti-rabbit IgG (catalog no. 55641);
c. PBS (Gibco Catalog No. 450-1300EB);
d. TBSW Buffer (50 mM Tris (pH 7.2), 150 mM NaCl and 0.1% Tween-20);
e. Ethanolamine stock (10% ethanolamine (pH 7.0), stored at 4° C.);
f. HNTG buffer (20 mM HEPES buffer (pH 7.5), 150 mM NaCl, 0.2% Triton X-100, and 10% glycerol);
g. EDTA (0.5 M (pH 7.0) as a 100× stock);
h. Sodium orthovanadate (0.5 M as a 100× stock);
i. Sodium pyrophosphate (0.2 M as a 100× stock);
j. NUNC 96 well V bottom polypropylene plates (Applied Scientific Catalog No. AS-72092);
k. NIH3T3 C7#3 Cells (FLK-1 expressing cells);
l. DMEM with 1× high glucose L-Glutamine (catalog No. 11965-050);
n. L-glutamine, Gibco (catalog no. 25030-016);
o. VEGF, PeproTech, Inc. (catalog no. 100-20)(kept as 1 μg/100 μl stock in Milli-Q dH2O and stored at −20° C.;
p. Affinity purified anti-FLK-1 antiserum;
q. UB40 monoclonal antibody specific for phosphotyrosine (see, Fendley, et al., 1990, Cancer Research 50:1550-1558);
r. EIA grade Goat anti-mouse IgG-POD (BioRad catalog no. 172-1011);
s. 2,2-azino-bis(3-ethylbenz-thiazoline-6-sulfonic acid (ABTS) solution (100 mM citric acid (anhydrous), 250 mM Na2HPO4 (pH 4.0), 0.5 mg/ml ABTS (Sigma catalog no. A-1888)), solution should be stored in dark at 4° C. until ready for use;
t. H2O2 (30% solution) (Fisher catalog no. H325);
u. ABTS/ H2O2 (15 ml ABTS solution, 2 μl H2O2) prepared 5 minutes before use and left at room temperature;
v. 0.2 M HCl stock in H2O;
w. dimethylsulfoxide (100%) (Sigma Catalog No. D-8418); and
y. Trypsin-EDTA (Gibco BRL Catalog No. 25200-049).
1. Coat Corning 96-well ELISA plates with 1.0 μg per well Cappel Anti-rabbit IgG antibody in 0.1M Na2CO3 pH 9.6. Bring final volume to 150 μl per well. Coat plates overnight at 4° C. Plates can be kept up to two weeks when stored at 4° C.
2. Grow cells in Growth media (DMEM, supplemented with 2.0 mM L-Glutamine, 10% FBS) in suitable culture dishes until confluent at 37° C., 5% CO2.
3. Harvest cells by trypsinization and seed in Corning 25850 polystyrene 96-well round bottom cell plates, 25,000 cells/well in 200 μl of growth media.
4. Grow cells at least one day at 37° C., 5% CO2.
5. Wash cells with D-PBS 1×.
6. Add 200 μl/well of starvation media (DMEM, 2.0 mM 1-Glutamine, 0.1% FBS). Incubate overnight at 37° C., 5% CO2.
7. Dilute Compounds 1:20 in polypropylene 96 well plates using starvation media. Dilute dimethylsulfoxide 1:20 for use in control wells.
8. Remove starvation media from 96 well cell culture plates and add 162 μl of fresh starvation media to each well.
9. Add 18 μl of 1:20 diluted compound dilution (from step 7) to each well plus the 1:20 dimethylsulfoxide dilution to the control wells (+/− VEGF), for a final dilution of 1:200 after cell stimulation. Final dimethylsulfoxide is 0.5%. Incubate the plate at 37° C., 5% CO2 for two hours.
10. […]

[2] = system: PDGF-R; test: PDGF-R Assay (cellular ELISA, U1242 cells); type: cell-based; set-up: concentration or dose not given beside the values; conditions: protocol P.119
Procedure: as §1
All cell culture media, glutamine, and fetal bovine serum can be purchased from Gibco Life Technologies (Grand Island, N.Y.) unless otherwise specified. All cells are grown in a humid atmosphere of 90-95% air and 5-10% CO2 at 37° C. All cell lines are routinely subcultured twice a week and are negative for mycoplasma as determined by the Mycotect method (Gibco).
For ELISA assays, cells (U1242, obtained from Joseph Schlessinger, NYU) are grown to 80-90% confluency in growth medium (MEM with 10% FBS, NEAA, 1 mM NaPyr and 2 mM GLN) and seeded in 96-well tissue culture plates in 0.5% serum at 25,000 to 30,000 cells per well. After overnight incubation in 0.5% serum-containing medium, cells are changed to serum-free medium and treated with test compound for 2 hr in a 5% CO2, 37° C. incubator. Cells are then stimulated with ligand for 5-10 minute followed by lysis with HNTG (20 mM Hepes, 150 mM NaCl, 10% glycerol, 5 mM EDTA, 5 mM Na3VO4, 0.2% Triton X-100, and 2 mM NaPyr). Cell lysates (0.5 mg/well in PBS) are transferred to ELISA plates previously coated with receptor-specific antibody and which had been blocked with 5% milk in TBST (50 mM Tris-HCl pH 7.2, 150 mM NaCl and 0.1% Triton X-100) at room temperature for 30 min. Lysates are incubated with shaking for 1 hour at room temperature. The plates are washed with TBST four times and then incubated with polyclonal anti-phosphotyrosine antibody at room temperature for 30 minutes. Excess anti-phosphotyrosine antibody is removed by rinsing the plate with TBST four times. Goat anti-rabbit IgG antibody is added to the ELISA plate for 30 min at room temperature followed by rinsing with TBST four more times. ABTS (100 mM citric acid, 250 mM Na2HPO4 and 0.5 mg/mL 2,2′-azino-bis (3-ethylbenzthiazoline-6-sulfonic acid)) plus H2O2 ([…] 30% H2O2 to 10 ml ABTS) is added to the ELISA plates to start color development. Absorbance at 410 nm with a reference wavelength of 630 nm is recorded about 15 to 30 min after ABTS addition.

Structure (SMILES): Cc1c(Br)cc(Br)c2c1C(=CC1COc3ccccc3O1)C(=O)N2 (racemic) [10739/H05]
- Flk Kinase % Inhibition (P.110) [1]: 5.3% and 10.0%
- PDGF Kinase % Inhibition (P.119) [2]: −5.0% and −6.4%
